4 compounds from the NIST ThermoML archive (doi:10.1021/je700486g) can be followed below.

SMILES strings stand for the structures. Numbers after ± are expanded uncertainties.

For the data set the following is noted: Crystal; visual observation.
For the compound `O=C(O)c1ccccc1` [benzoic acid], the Normal melting temperature amounted to 122 ± 1 °C.
With `CC(=O)Oc1ccccc1C(=O)O` [2-acetoxybenzoic acid] the figure was 135.4 ± 1.1 °C; with `O=C(O)c1ccccc1O` [2-hydroxybenzoic acid], 159 ± 1 °C.
With `c1ccc2c(c1)-c1cccc3cccc-2c13` [fluoranthene] the figure was 108.4 ± 3 °C.
